Key:
Type in all cases: cell-based
[1] = tested on: L 29-APO-1 cells and SKW 6.4 cells; test: Inhibition of apoptosis induced by an anti-APO-1 antibody using YVAD-CHO (DNA fragmentation, Hoechst dye 33342, FACS); details: permeabilized L 29-APO-1 and SKW 6.4 cells, YVAD-CHO 30 minutes, then anti-APO-1 antibodies 1 μg/ml for 60 minutes; FIG. 2C
Method: FIG. 2C depicts the inhibition of apoptosis by YVAD-CHO.
L 29-APO-1 cells (◯) and SKW 6.4 cells (●) were permeabilized by a short hypotonic shock and incubated with the indicated concentrations of YVAD-CHO indicated in FIG. 2C for 30 minutes. The cells were incubated with anti-APO-1 antibodies (1 μg/ml) for 60 minutes. Apoptosis was determined by measuring a DNA fragmentation using the Hoechst dye 33342 (Molecular Probes Eugene, Oreg.). Data of specific cell death (cell death in the presence of an anti-APO-1 antibody minus cell death in the absence of such an antibody) was obtained from triple measurements by using an FACS Vantage flow cytometer. Spontaneous cell death in the absence of an anti-APO-1 antibody was less than 7%.

L 29-APO-1 cells = test: Inhibition of apoptosis induced by an anti-APO-1 antibody using DCI (MTT assay); details: DCI 45 μM or 15 μM, 1 hour before anti-APO-1 antibody for 7 hours, FIG. 2B
Method: FIG. 2B depicts the inhibition of apoptosis by DCI. L 29-APO-1 cells were incubated with DCI (●45μM, ▴15 μM) or without DCI (◯). After one hour, anti-APO-1 antibody was added in the amounts indicated in FIG. 2B and allowed to remain on the cells for 7 hours. The percentage cell death was determined by formazan production from diphenyltetrazolium salt (MTT assay).

SKW 6.4 cells = test: Inhibition of apoptosis induced in SKW 6.4 cells by anti-APO-1 antibody; details: SKW 6.4 cells incubated with anti-APO-1 antibody (20 ng/ml) and varying amounts of inhibitor for 24 hours, FIG. 1
Method: FIG. 1 depicts the inhibition of apoptosis induced in SKW6.4 cells by means of anti-APO-1 antibodies (20 ng/ml) by human APO-1-Ig and anti-APO-1F(ab′)2, respectively.
SKW 6.4 cells (Oehm et al, supra) are apoptosis-positive cells, i.e. apoptosis can be induced therein, e.g. by binding an anti-APO-1 antibody.
SKW 6.4 cells were incubated with an anti-APO-1 antibody in the presence of varying amounts of the fusion protein of Example 1 (human APO-1-Ig) and of anti-APO-1-F(ab)2 (see above), respectively, for 24 hours. The inhibition of apoptosis was determined. See, FIG. 1.

YVAD-CHO
inhibition of apoptosis induced by an anti-APO-1 antibody (specific cell death, DNA fragmentation) [1]: can be inhibited

O=c1oc(Cl)c(Cl)c2ccccc12 [DCI, 3,4-dichloroisocoumarin]
inhibition of apoptosis induced by an anti-APO-1 antibody (percentage cell death, MTT assay) (L 29-APO-1 cells): can be inhibited

B1: fused portion of Example 1: Fusion protein in which an extracellular APO-1 domain is fused via an antibody-hinge region to an Fc portion of a human antibody (protein)
chain: QVTDINSKGLELRKTVTTVETQNLEGLHHDGQFCHKPCPPGERKARDCTVNGDEPDCVPCQEGKEYTDKAHFSSKCRRCRLCDEGHGLEVEINCTRTQNTKCRCKPNFFCNSTVCEHCDPCTKCEHGIIKECTLTSNTKCKEEGSRSN
modifications: left off: a dimerising Fc or GST
notes: Fusion protein in which an extracellular APO-1 domain is fused via an antibody-hinge region to an Fc portion of a human antibody
inhibition of apoptosis (SKW 6.4 cells): strong apoptosis-inhibiting effect
inhibition of apoptosis (SKW 6.4 cells; listed as fusion protein): especially strong

— patent US20070207160A1, “Apoptosis inhibitors” (priority 1994, published 2007)
